Consider 30 molecules from US11065253B2, “Arylquinazolines” (Merck Patent GmbH, priority 2013, dated 2021).

A value given as a limit tells only on which side of the number the result lay.

Usually IC50 stands for the point on the concentration scale where inhibition reaches its midpoint.

In the first experiment the test system is phospho-serine 2056 DNA-PK in HCT116 cells. Briefly: DNA-PK phosphorylation at serine 2056 (cellular), ELISA in bleomycin-treated HCT116 cells. The experiment is classed as cell-based. The conditions noted are these: Homo sapiens, HCT-116, 6 h, cellular; HCT116 cells, 10 μM bleomycin, six hours; read-out: IC50 pDNA-PK. The procedure:
HCT116 cells were cultivated at 37° C. and 10% CO2 in MEM alpha medium with 10% of foetal calf serum and 2 mM glutamine. The cells were detached from the base of the culture vessels with the aid of trypsin/EDTA, centrifuged off in centrifuge tubes, taken up in fresh medium, and the cell density was determined. 100,000 cells were sown in 1 ml of culture medium per cavity of a 24-well cell culture plate and cultivated overnight. Next day, 10 μM bleomycin (DNA intercalator and inductor of DNA double-strand breaks) and test substances in fresh culture medium were added to the cells, and these were cultivated for a further six hours. […] The 96-well ELISA plates were subsequently treated with a detection antibody (Abcam ab79444: total DNA-PK) and a streptavidin-HRP conjugate. The development of the enzymatic reaction was carried out with the aid of a chemiluminescent reagent, the chemiluminescence was measured with the aid of a Mithras LB940. The signals with the phospho-DNA-PK-specific antibody were standardised to the signal with the antibody against the total protein DNA-PKc. […] The DMSO control was used as blank.
In general terms: An ELISA detects its analyte on a solid surface through an enzyme-linked reagent.
As for `Cc1nccnc1[C@H](O)c1ccc(F)c(-c2ncnc3cc(N4CCOCC4)ccc23)c1` [Example 83, (R)-[4-Fluoro-3-(7-morpholin-4-yl-quinazolin-4-yl)-phenyl]-(3-methyl-pyrazin-2-yl)methanol], the IC50 is under 500 nM.

On to `OC(c1ccc(F)c(-c2ncnc3cc(N4CCOCC4)ccc23)c1)c1nccnc1Cl` (stereo not drawn) [Example 54, (3-Chloro-pyrazin-2-yl)-[4-fluoro-3-(7-morpholin-4-yl-quinazolin-4-yl)phenyl]-methanol], for which the IC50 is under 500 nM.

As for `COc1cc(Cl)nnc1C(O)c1ccc(F)c(-c2ncnc3cc(N4CCOCC4)ccc23)c1` (stereo not drawn) [Example 10, (6-Chloro-4-methoxy-pyridazin-3-yl)-[4-fluoro-3-(7-morpholin-4-yl-quinazolin-4-yl)phenyl]-methanol], the IC50 is under 500 nM.

For `OC(c1cccnn1)c1cc(-c2ncnc3cc(N4CCOCC4)ccc23)c(F)cc1F` (stereo not drawn) [Example 48, [2,4-Difluoro-5-(7-morpholin-4-yl-quinazolin-4-yl)phenyl]-pyridazin-3-ylmethanol], the IC50 was 500 to 5000 nM.

On to `OC(c1ccc(Cl)nn1)c1cc(-c2ncnc3cc(N4CCOCC4)ccc23)c(F)cc1Cl` (stereo not drawn) [Example 41, [2-Chloro-4-fluoro-5-(7-morpholin-4-yl-quinazolin-4-yl)phenyl]-(6-chloro-pyridazin-3-yl)methanol], for which the IC50 was under 500 nM.

Regarding `COc1nccnc1C(O)c1ccc(F)c(-c2ncnc3cc(N4CCOCC4)ccc23)c1` (stereo not drawn) [Example 15, [4-Fluoro-3-(7-morpholin-4-yl-quinazolin-4-yl)phenyl]-(3-methoxy-pyrazin-2-yl)methanol], the IC50 was under 500 nM.

Staying with this experiment, now noted: Homo sapiens, HCT-116, cellular DNA-PK phosphorylation at serine 2056, HCT116 cells; read-out: IC50 pDNA-PK.
Take `OC(c1cc(-c2ncnc3cc(N4CCOCC4)ccc23)ccc1Cl)c1nccn2ccnc12` (stereo not drawn) [Example 369, [2-Chloro-5-(7-morpholin-4-yl-quinazolin-4-yl)-phenyl]imidazo-[1,2-a]pyrazin-8-yl-methanol]: the IC50 lay within 5000 to 10000 nM.

Consider `OC(c1cc(-c2ncnc3cc(N4CCOCC4)ccc23)c(F)cc1Cl)c1ncnc2sccc12` (stereo not drawn) [Example 429, [2-Chloro-4-fluoro-5-(7-morpholin-4-yl-quinazolin-4-yl)-phenyl]thieno[2,3-d}-pyrimidin-4-yl-methanol], for which the 50% inhibitory concentration (IC50) was under 500 nM.

For `OC(c1cc(-c2ncnc3cc(N4CCOCC4)ccc23)ccc1F)c1ncnc2ccoc12` (stereo not drawn) [Example 374, [2-Fluoro-5-(7-morpholin-4-yl-quinazolin-4-yl)-phenyl]furo[3,2-d}-pyrimidin-4-yl-methanol], the IC50 lay within 500 to 5000 nM.

`OC(c1cc(-c2ncnc3cc(N4CCOCC4)ccc23)c(F)cc1Cl)c1ncnc2ccoc12` (stereo not drawn) [Example 440, [2-Chloro-4-fluoro-5-(7-morpholin-4-yl-quinazolin-4-yl)-phenyl]furo[3,2-d}-pyrimidin-4-yl-methanol]: the IC50 is under 500 nM.

In the case of `OC(c1cc(-c2ncnc3cc(N4CCOCC4)ccc23)ccc1F)c1cccc2nncn12` (stereo not drawn) [Example 373, [2-Fluoro-5-(7-morpholin-4-yl-quinazolin-4-yl)-phenyl]-[1,2,4]-triazolo[4,3-a]pyridin-5-ylmethanol], the IC50 lay within 500 to 5000 nM.

As to `OC(c1cc(-c2ncnc3cc(N4CCOCC4)ccc23)c(F)cc1F)c1ncnc2ccsc12` (stereo not drawn) [Example 439, [2,4-Difluoro-5-(7-morpholin-4-yl-quinazolin-4-yl)-phenyl]thieno[3,2-d}-pyrimidin-4-yl-methanol], the IC50 is under 500 nM.

With `OC(c1cc(-c2ncnc3cc(N4CCOCC4)ccc23)ccc1Cl)c1ncnc2occc12` (stereo not drawn) [Example 416, [2-Chloro-5-(7-morpholin-4-yl-quinazolin-4-yl)-phenyl]furo[2,3-d}-pyrimidin-4-yl-methanol], the IC50 lay within 500 to 5000 nM.

Staying with this experiment, now noted: Homo sapiens, HCT-116, phospho-serine 2056 DNA-PK, bleomycin-treated HCT116 cells; class symbols A-D; read-out: IC50 pDNA-PK.
Regarding `CC(O)c1csc(C(O)c2cc(-c3ncnc4cc(N5CCOCC5)ccc34)c(F)cc2Cl)n1` (stereo not drawn) [Example 201, 1-(2-{[2-Chloro-4-fluoro-5-(7-morpholin-4-yl-quinazolin-4-yl)-phenyl]hydroxy-methyl}thiazol-4-yl)-ethanol], the IC50 fell in the range of 500 to 5000 nM.

As to `N#CCOc1ccc(C(O)c2cc(-c3ncnc4cc(N5CCOCC5)ccc34)c(F)cc2Cl)nn1` (stereo not drawn) [Example 119, (6-{[2-Chloro-4-fluoro-5-(7-morpholin-4-yl-quinazolin-4-yl)-phenyl]hydroxy-methyl}pyridazin-3-yl-oxy)acetonitrile], the IC50 was under 500 nM.

`CNCc1csc(C(O)c2cc(-c3ncnc4cc(N5CCOCC5)ccc34)c(F)cc2Cl)n1` (stereo not drawn) [Example 143, [2-Chloro-4-fluoro-5-(7-morpholin-4-yl-quinazolin-4-yl)-phenyl]-(4-methylamino-methyl-thiazol-2-yl)-methanol]: the IC50 lay in the range of 5000 to 10000 nM.

Consider `COc1ccc(C(C)(O)c2cc(-c3ncnc4cc(N5CCOCC5)ccc34)c(F)cc2Cl)nn1` (stereo not drawn) [Example 125, 1-[2-Chloro-4-fluoro-5-(7-morpholin-4-yl-quinazolin-4-yl)-phenyl]-1-(6-methoxy-pyridazin-3-yl)-ethanol], for which the IC50 was 10000 to 30000 nM.

Consider `OCCOc1ccc(C(O)c2cc(-c3ncnc4cc(N5CCOCC5)ccc34)c(F)cc2Cl)nn1` (stereo not drawn) [Example 116, 2-(6-{[2-Chloro-4-fluoro-5-(7-morpholin-4-yl-quinazolin-4-yl)-phenyl]hydroxy-methyl}pyridazin-3-yl-oxy)ethanol], for which the IC50 was in the range of 500 to 5000 nM.

As to `OC(c1cc(F)c(F)c(-c2ncnc3cc(N4CCOCC4)ccc23)c1)c1nccs1` (stereo not drawn) [Example 171, [3,4-Difluoro-5-(7-morpholin-4-yl-quinazolin-4-yl)-phenyl]thiazol-2-yl-methanol], the IC50 lay within 500 to 5000 nM.

`CC(O)(c1ccc(F)c(-c2ncnc3cc(N4CCOCC4)ccc23)c1)c1nccs1` (stereo not drawn) [Example 163, 1-[4-Fluoro-3-(7-morpholin-4-yl-quinazolin-4-yl)-phenyl]-1-thiazol-2-ylethanol]: the IC50 lay in the range of 10000 to 30000 nM.

Staying with this experiment, now noted: Homo sapiens, HCT-116, phospho-serine 2056 DNA-PK, bleomycin-treated HCT116 cells; read-out: IC50 pDNA-PK.
Take `Cc1nccnc1[C@@H](O)c1ccc(F)c(-c2ncnc3cc(N4CCOCC4)cnc23)c1` [Example 233, (S)-[4-Fluoro-3-(7-morpholin-4-yl-pyrido[3,2-d}-pyrimidin-4-yl)-phenyl]-(3-methyl-pyrazin-2-yl)-methanol]: the IC50 was in the range of 10000 to 30000 nM.

Take `NC(=O)C(c1cc(-c2ncnc3cc(N4CCOCC4)ccc23)c(F)cc1Cl)c1ncccc1Cl` (stereo not drawn) [Example 289, 2-[2-Chloro-4-fluoro-5-(7-morpholin-4-yl-quinazolin-4-yl)-phenyl]-2-(3-chloro-pyridin-2-yl)-acetamide]: the IC50 fell in the range of 500 to 5000 nM.

For the molecule `Cc1nccnc1[C@H](O)c1ccc(F)c(-c2ncnc3cc(N4CCOCC4)cnc23)c1` [Example 234, (R)-[4-Fluoro-3-(7-morpholin-4-yl-pyrido[3,2-d}-pyrimidin-4-yl)-phenyl]-(3-methyl-pyrazin-2-yl)-methanol], the IC50 was under 500 nM.

Staying with this experiment, now noted: cellular DNA-PK phosphorylation at serine 2056, HCT116 cells; read-out: IC50 pDNA-PK.
Consider `Cn1c(C(O)c2cc(-c3ncnc4cc(N5CCOCC5)ccc34)c(F)cc2Cl)cccc1=O` (stereo not drawn) [Example 435, 6-{[2-Chloro-4-fluoro-5-(7-morpholin-4-yl-quinazolin-4-yl)-phenyl]hydroxy-methyl}-1-methyl-1H-pyridin-2-one], for which the IC50 is under 500 nM.

Regarding `OC(c1ccc(F)c(-c2ncnc3cc(N4CCOCC4)ccc23)c1)c1ncnc2occc12` (stereo not drawn) [Example 434, [4-Fluoro-3-(7-morpholin-4-yl-quinazolin-4-yl)-phenyl]furo[2,3-d}-pyrimidin-4-yl-methanol], the IC50 was under 500 nM.

Turning to `COc1ccc(C(O)c2cc(-c3ncnc4cc(N5CCOCC5)ccc34)ccc2Cl)nn1` (stereo not drawn) [Example 460, [2-Chloro-5-(7-morpholin-4-yl-quinazolin-4-yl)-phenyl]-(6-methoxy-pyridazin-3-yl)-methanol], the IC50 was under 500 nM.

With `OC(c1cc(-c2ncnc3cc(N4CCOCC4)ccc23)c(F)cc1Cl)c1ncnc2ccoc12` (stereo not drawn) [Example 441, [2-Chloro-4-fluoro-5-(7-morpholin-4-yl-quinazolin-4-yl)-phenyl]furo[3,2-d}-pyrimidin-4-yl-methanol], the IC50 was under 500 nM.

`COc1nccnc1[C@@H](O)c1cc(-c2ncnc3cc(N4CCOCC4)ccc23)c(F)cc1Cl` [Example 456, (S)-[2-Chloro-4-fluoro-5-(7-morpholin-4-yl-quinazolin-4-yl)-phenyl]-(3-methoxy-pyrazin-2-yl)-methanol]: the IC50 was under 500 nM.

Regarding `OC(c1ccc(F)c(-c2ncnc3cc(N4CCOCC4)ccc23)c1)c1nccnc1OC(F)F` (stereo not drawn) [Example 464, (3-Difluoromethoxy-pyrazin-2-yl)-[4-fluoro-3-(7-morpholin-4-yl-quinazolin-4-yl)-phenyl]methanol], the IC50 lay within 500 to 5000 nM.

Staying with this experiment, now noted: phospho-serine 2056 DNA-PK, bleomycin-treated HCT116 cells; read-out: IC50 pDNA-PK.
As for `[2H]C1([2H])OC([2H])([2H])C([2H])([2H])N(c2ccc3c(-c4cc(C(O)c5nccnc5OC)c(Cl)cc4F)ncnc3c2)C1([2H])[2H]` (stereo not drawn) [Example 242, [2-Chloro-4-fluoro-5-[7-(2,2,3,3,5,5,6,6-octadeuterio-morpholin-4-yl)quinazolin-4-yl]phenyl]-(3-methoxypyrazin-2-yl)methanol], the IC50 is under 500 nM.
